Experimental data reported in patent publication US4000280A, “Pharmaceutical compositions containing an amphetamine derivative for the alleviation of anxiety or treatment of depression” (Astra Lakemedel Aktiebolag, priority 1975, dated 1976).

Tests used:
mice = assay: Motor activity in mice (exploratory activity in locomotion cage); assay type: in vivo; design: key to Motor Activity: +: increase; -: decrease; 0: no effect; conditions: for Motor Activity: recorded for 10 minutes 1 hour after administration, compared to control groups, i.p.; for central stimulation (in words): motor activity in mice
Procedure: The lack of euphoric effects, that is lack of central stimulatory activity, is tested by measuring the motor activity in mice after administration of the test substance.
The exploratory activity of mice was recorded in a locomotion cage in which the movements were counted each time the animals cross-circuits an electrical current in the bottom plate. The activity was recorded for 10 minutes 1 hour after the administration of the drug. The animals were tested individually. Groups of six mice were used and the mice were only used once. The activity was expressed in percent of the activity of control groups ran simultaneously. The compounds were administered in at least four doses. The increase (+) or decrease (-) of the activity compared to control groups was determined from log dose response curves.

5-HTP response = 5-HTP response potentiation test (potentiation of behavioral syndrome after dl-5-HTP); assay type: in vivo, mice; conditions: Mus musculus, ip; dl-5-HTP 90 mg/kg i.v.; at least five doses; probit analysis (Litchfield and Wilcoxon)
Excerpt: It is not possible by experimental means to induce depressions in laboratory animals. In order to evaluate a possible anti depressive effect on new substances biochemical-pharmacological test methods must be resorted to. One such method, which seems to give a good indication of the potential anti depressive effects of the test substances, is described in Europ. J. Pharmacol. 17, 107, 1972. This method involves the measurement of the potentiation of the syndromes produced by 5-hydroxytryptophan (5-HTP) in a laboratory animal.
Inhibition of the uptake of 5-HT potentiates the effects of administered 5-hydroxytryptophan (5-HTP) probably by increasing the amount of 5-HT at the receptor. Three mice are given the test drugs 1 hour (or 4, 24 hours) before dl-5-HTP, 90 mg/kg i.v. 5-HTP alone gives only a weak behavioral syndrome but in pretreated mice there is seen a characteristic behavioral syndrome, which comes within 5 minutes: tremor, lordosis, abduction of the hind-legs, head-twitches.
The absence or presence of respective syndrome is scored in groups of 10 mice. The compound was administered in at least five doses and the quantal responses were analysed by probit analysis and ED50 determined according to the method of Litchfield and Wilcoxon.

isolated mice = assay: Aggressive behavior in isolated male mice (antiaggressive activity); assay type: in vivo; conditions: Mus musculus, ip, 5 min; i.p.; dose which reduces the aggressiveness score by 50%; 5 min test; read-out: Antiaggressive behaviour in mice ED50
Procedure: Potential anxiolytic activity is tested by measuring the antiaggressivity in isolated mice after administration of the test substance. In this test not amphetamine but Valium -- a well-known anxiolytic substance -- is used as a reference.
Male mice kept isolated for 3 weeks or longer develop an aggressive behavior when caged together. The method used follows that of Valzelli et al. (Europ. J. Pharmacol. 2, 144, 1967), with the exception that two mice were tested on each other. The aggressiveness was scored during a 5 min test according to the following schedule:
0 the animals show no interest in each other except occasional nosing
25 frequent vigorous nosing and tail rattling, the animals assume a fighting position and occasionally attack each other -- no more than 3-4 times in the 5 min period
50 tail rattling, powerful attacks -- no more than 10 times in the test period
75 the animals follow their partners, attacking and biting for most of the time
100 attacks over the entire period.
The animals were used for several experiments but with intervals of at least 1 week. Groups of 10 mice were used.
ED50 is the dose which reduces the aggressiveness score by 50%.

CC(N)Cc1c(Cl)cc(N(C)C)cc1Cl.Cl.Cl (stereo not drawn) [2-Cl 6-Cl CH3 CH3 H CH3, 2,6-Dichloro-4-dimethylamino-α-methylphenethylamine dihydrochloride]
Motor Activity (mice): -

CC(N)Cc1ccccc1 (stereo not shown) [Amphetamine]
central stimulation (in words) (mice): pronounced

Cc1cc(N(C)C)ccc1CC(C)N.Cl.Cl (stereo not drawn) [H 2-CH 3 CH3 CH3 H CH3, 2-Methyl-4-dimethylamino-α-methylphenethylamine dihydrochloride]
Motor Activity (mice): -

CCC(N)Cc1ccc(N(C)C)cc1Cl (stereo not shown) [H 2-Cl CH3 CH3 H C2 H5]
Motor Activity (mice): 0

CC(N)Cc1ccc(N(C)C)cc1Cl.Cl.Cl (stereo not drawn) [H 2-Cl CH3 CH3 H CH3, 2-Chloro-4dimethylamino-α-methylphenethylamine dihydrochloride]
Motor Activity (mice): -

CCN(CC)c1ccc(CC(C)N)cc1 (stereo not shown) [H H C2 H5 C2 H5 H CH3]
Motor Activity (mice): -

CC(N)Cc1ccc2c(c1)CCCN2C.Cl.Cl (stereo not shown) [H H CH3 (CH2)3 H CH3, 6-(2-Aminopropyl)-1-methyl-1,2,3,4-tetrahydroquinoline dihydrochloride]
ED50 (5-HTP response): 1.5 mg/kg
ED50 (isolated mice): > 5 mg/kg

CN(C)c1ccc(CC(C)(C)N)cc1.Cl.Cl [H H CH3 CH3 CH3 CH3, 4-Dimethylamino-α, α-dimethylphenethylamine dihydrochloride]
Motor Activity (mice): 0

CC(N)Cc1ccc(Cl)cc1 (stereo not shown) [P-Chloroamphetamine, reference compound]
central stimulation (in words) (mice): pronounced
